This is an account of results in patent US20220396565A1 (Hoffmann-La Roche Inc., priority 2020, published 2022).

For this assay, the system named is Acinetobacter baumannii ATCC17978. The assay can be described thus: Antimicrobial susceptibility testing: 90% growth inhibitory concentration (IC90) determination, Iso-Sensitest broth. The class given is cell-based. The method, boiled down: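 Growth at OD600 was monitored every 20 min for 16 h at 35±2 °C, with bacteria inoculated at ~5×10^(5) CFU/ml into Iso-Sensitest medium. Compounds were tested as 10-point twofold dilutions (e.g. 10–0.02 μM final). The 90% inhibitory concentration comes from the log-phase growth.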

Setting [1] is: 90% growth inhibitory concentration, Acinetobacter baumannii ATCC17978, Iso-Sensitest broth, read-out: ATCC 17978 IC90.

Counter-ions that a name gives are not always drawn. Like-named read-outs stand apart in the source and are kept apart here.

The term IC90 denotes the point of the concentration-response curve where the effect stands at 90%. On to `Cn1c(-c2ccc(OCC#N)c(F)c2F)cnc1C(=O)Nc1ccc(C(=O)N2CCC(C(=O)N3CCOC(CN)C3)CC2)c(Cl)c1` (stereo not drawn) [Example 73, N-(4-(4-(2-(aminomethyl)morpholine-4-carbonyl)piperidine-1-carbonyl)-3-chlorophenyl)-5-(4-(cyanomethoxy)-2,3-difluorophenyl)-1-methyl-1H-imidazole-2-carboxamide 2,2,2-trifluoroacetate], for which, under setting [1], the IC90 was determined as 0.06 µM. The same measure, in the same setting: the result for `CNCC(=O)N1CCN(C(=O)c2ccc(NC(=O)c3ncc(-c4ccc(OC)c(F)c4F)n3C)cc2Cl)CC1` [Example 105, N-[3-chloro-4-[4-[2-(methylamino)acetyl]piperazine-1-carbonyl]phenyl]-5-(2,3-difluoro-4-methoxy-phenyl)-1-methyl-imidazole-2-carboxamide trifluoroacetate] reads 0.07 µM; that for `CCc1cc(NC(=O)c2ncc(-c3ccc(OC)c(F)c3F)n2C)ccc1C(=O)N1CCC(Cc2nc(C3CCC3)no2)CC1` [Example 27, N-[4-[4-[(3-cyclobutyl-1,2,4-oxadiazol-5-yl)methyl]piperidine-1-carbonyl]-3-ethyl-phenyl]-5-(2,3-difluoro-4-methoxy-phenyl)-1-methyl-imidazole-2-carboxamide], 5.7 µM; that for `Cn1c(-c2ccc(OCC#N)c(F)c2F)cnc1C(=O)Nc1ccc(C(=O)N2CCN(C(=O)C3CCNCC3)CC2)c(Cl)c1` [Example 196, N-(3-chloro-4-(4-(piperidine-4-carbonyl)piperazine-1-carbonyl)phenyl)-5-(4-(cyanomethoxy)-2,3-difluorophenyl)-1-methyl 1H-imidazole-2-carboxamide formate], 0.07 µM.

For the compound `COc1ccc(-c2cnc(C(=O)Nc3ccc(C(=O)N4CCN(C(=O)CN(C)C)CC4)c(Cl)c3)n2C)c(F)c1F` [Example 104, N-[3-chloro-4-[4-[2-(dimethylamino)acetyl]piperazine-1-carbonyl]phenyl]-5-(2,3-difluoro-4-methoxy-phenyl)-1-methyl-imidazole-2-carboxamide trifluoroacetate], the IC90 under setting [1] turned out to be 0.07 µM. Still for that read-out and setting: the figure for `COc1ccc(-c2cnc(C(=O)Nc3ccc(C(=O)N4CCN(C(=O)C5CCNCC5)CC4)c(C)c3)n2C)c(Cl)c1F` [Example 117, 5-(2-chloro-3-fluoro-4-methoxy-phenyl)-1-methyl-N-[3-methyl-4-[4-(piperidine-4-carbonyl)piperazine-1-carbonyl]phenyl]imidazole-2-carboxamide formate] is 0.15 µM. Take `COc1ccc(-c2cnc(C(=O)Nc3ccc(C(=O)N4CCC(C(=O)N5CCN[C@@H](CO)C5)CC4)c(Cl)c3)n2C)c(Cl)c1F` [Example 116, 5-(2-chloro-3-fluoro-4-methoxy-phenyl)-N-[3-chloro-4-[4-[(3R)-3-(hydroxymethyl)piperazine-1-carbonyl]piperidine-1-carbonyl]phenyl]-1-methyl-imidazole-2-carboxamide]: the IC90 under setting [1] came to 0.13 µM. As to `CN(C)CCN1CCN(C(=O)c2ccc(NC(=O)c3ncc(-c4ccc(OCC#N)c(F)c4Cl)n3C)cc2Cl)CC1` [Example 270, 5-[2-chloro-4-(cyanomethoxy)-3-fluoro-phenyl]-N-[3-chloro-4-[4-[2-(dimethylamino)ethyl]piperazine-1-carbonyl]phenyl]-1-methyl-imidazole-2-carboxamide], the IC90 under setting [1] worked out at 0.05 µM. Same read-out and setting: the result for `COc1ccc(-c2cnc(C(=O)Nc3ccc(C(=O)N4CCN(CCN(C)C)CC4)c(Cl)c3)n2C)cc1F` [Example 274, N-[3-chloro-4-[4-[2-(dimethylamino)ethyl]piperazine-1-carbonyl]phenyl]-5-(3-fluoro-4-methoxy-phenyl)-1-methyl-imidazole-2-carboxamide formate] reads 0.29 µM; that for `Cn1c(-c2ccc(OCC#N)c(F)c2F)cnc1C(=O)Nc1ccc(C(=O)N2CCN(C(=O)[C@@H]3CCNC3)CC2)c(Cl)c1` [Example 199, (R)-N-(3-chloro-4-(4-(pyrrolidine-3-carbonyl)piperazine-1-carbonyl)phenyl)-5-(4-(cyanomethoxy)-2,3-difluorophenyl)-1-methyl-1H-imidazole-2-carboxamide 2,2,2-trifluoroacetate], 0.04 µM; that for `Cn1c(-c2ccc(OCC#N)c(F)c2F)cnc1C(=O)Nc1ccc(C(=O)N2CCC(C(=O)N3CCN[C@@H](CO)C3)CC2)c(Cl)c1` [Example 81, (R)-N-(3-chloro-4-(4-(3-(hydroxymethyl)piperazine-1-carbonyl)piperidine-1-carbonyl)phenyl)-5-(4-(cyanomethoxy)-2,3-difluorophenyl)-1-methyl-1H-imidazole-2-carboxamide 2,2,2-trifluoroacetate], 0.07 µM. On the same count and under the same terms, the figure for `Cc1cc(NC(=O)c2ncc(-c3ccc(OCC#N)c(F)c3F)n2C)ccc1C(=O)N1CCC(C(=O)N2CCOCC2)CC1` [Example 78, 5-(4-(cyanomethoxy)-2,3-difluorophenyl)-1-methyl-N-(3-methyl-4-(4-(morpholine-4-carbonyl)piperidine-1-carbonyl)phenyl)-1H-imidazole-2-carboxamide] is 0.12 µM. As for `Cn1c(-c2ccc(OCC#N)c(F)c2F)cnc1C(=O)Nc1ccc(C(=O)N2CCN(C(=O)[C@H]3CCCN3)CC2)c(Cl)c1` [Example 197, (R)-N-(3-chloro-4-(4-prolylpiperazine-1-carbonyl)phenyl)-5-(4-(cyanomethoxy)-2,3-difluorophenyl)-1-methyl 1H-imidazole-2-carboxamide 2,2,2-trifluoroacetate], under “Acinetobacter baumannii, ATCC17978, read-out: ATCC 17978 IC90”, the IC90 worked out at 0.07 µM. As for `CCc1cc(NC(=O)c2ncc(-c3ccc(OC(F)F)cc3)n2C)ccc1C(=O)N1CCN(CCN(C)C)CC1` [Example 275, 5-[4-(difluoromethoxy)phen-yl]-N-[4-[4-[2-(dimethylamino)ethyl]piperazine-1-carbonyl]-3-ethyl-phenyl]-1-methyl-imidazole-2-carboxamide], under setting [1], the IC90 was 1.52 µM. `CCc1cc(NC(=O)c2ncc(-c3ccc(OC)cc3Cl)n2C)ccc1C(=O)N1CCN(CCN(C)C)CC1` [Example 277, 5-(2-chloro-4-methoxyphenyl)-N-(4-(4-(2-(dimethylamino)ethyl)piperazine-1-carbonyl)-3-ethylphenyl)-1-methyl-1H-imidazole-2-carboxamide]: under setting [1], the IC90 amounted to 2.3 µM. Take `Cn1c(-c2ccc(OCC#N)c(F)c2F)cnc1C(=O)Nc1ccc(C(=O)N2CCC(C(=O)N3CCOCC3)CC2)c(Cl)c1` [Example 74, N-(3-chloro-4-(4-(morpholine-4-carbonyl)piperidine-1-carbonyl)phenyl)-5-(4-(cyanomethoxy)-2,3-difluorophenyl)-1-methyl-1H-imidazole-2-carboxamide]: under setting [1], the IC90 was 0.1 µM. Still for that read-out and setting: the result for `CNCC(=O)N1CCN(C(=O)c2ccc(NC(=O)c3ncc(-c4ccc(OCC#N)c(F)c4F)n3C)cc2Cl)CC1` [Example 205, N-(3-chloro-4-(4-(methylglycyl)piperazine-1-carbonyl)phenyl)-5-(4-(cyanomethoxy)-2,3-difluorophenyl)-1-methyl-1H-imidazole-2-carboxamide formate] reads 0.06 µM; that for `Cn1c(-c2ccc(OCC#N)c(F)c2F)cnc1C(=O)Nc1ccc(C(=O)N2CCC(C(=O)N3CC[C@@H](N)C3)CC2)c(Cl)c1` [Example 80, (R)-N-(4-(4-(3-aminopyrrolidine-1-carbonyl)piperidine-1-carbonyl)-3-chlorophenyl)-5-(4-(cyanomethoxy)-2,3-difluorophenyl)-1-methyl-1H-imidazole-2-carboxamide formate], 0.07 µM.
